Literature values, collected in patent US6887842B1, “Modulating a pharmacokinetic property of a drug by administering a bifunctional molecule containing the drug” (The Board of Trustees of the Leland Stanford Junior …, priority 1999, dated 2005).
Like-named read-outs stand apart in the source and are kept apart here. One block for each molecule: values may come before it.

Columns and labels:
[1] = in vivo
[2] = in vivo; remark: listed apart in the source
[3] = target: albumin (Homo sapiens, UniProt P02768)
Chain of albumin (P02768 25-609, species assumed): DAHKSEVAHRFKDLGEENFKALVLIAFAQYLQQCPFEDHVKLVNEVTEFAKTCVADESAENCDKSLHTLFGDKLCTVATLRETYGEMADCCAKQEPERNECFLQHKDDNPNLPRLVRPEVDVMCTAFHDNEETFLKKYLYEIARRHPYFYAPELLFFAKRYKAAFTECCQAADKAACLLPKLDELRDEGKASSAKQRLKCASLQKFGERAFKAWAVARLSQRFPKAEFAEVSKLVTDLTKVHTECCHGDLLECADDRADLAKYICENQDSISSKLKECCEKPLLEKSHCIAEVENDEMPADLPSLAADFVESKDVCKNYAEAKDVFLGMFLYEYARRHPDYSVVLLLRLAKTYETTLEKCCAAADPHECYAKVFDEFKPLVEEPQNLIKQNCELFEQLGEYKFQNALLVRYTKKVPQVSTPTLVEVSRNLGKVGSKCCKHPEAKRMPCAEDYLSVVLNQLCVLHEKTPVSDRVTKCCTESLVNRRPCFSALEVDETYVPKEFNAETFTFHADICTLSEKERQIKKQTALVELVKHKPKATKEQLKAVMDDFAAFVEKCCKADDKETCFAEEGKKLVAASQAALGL

[4] = in vivo; remark: listed apart in the source

Molecule: Sc1ncnc2nc[nH]c12 [mercaptopurine]
hepatic first-pass clearance [4]: extensive hepatic first-pass clearance

Molecule: C=CCN1CC[C@]23c4c5ccc(O)c4O[C@H]2C(=O)CC[C@@]3(O)[C@H]1C5 [naloxone]
hepatic first-pass clearance [4]: extensive hepatic first-pass clearance

Molecule: CC[C@H](C)C(=O)O[C@H]1C[C@H](O)C=C2C=C[C@H](C)[C@H](CC[C@@H](O)C[C@@H](O)CC(=O)O)[C@H]21 [pravastatin]
hepatic first-pass clearance [4]: extensive hepatic first-pass clearance

Molecule: FK506
half-life [1]: 30 h

Second part, led by results:

half-life [1]: 2 to 3 h
Molecule: Cc1ccc2nc(N)[nH]c(=O)c2c1Sc1ccncc1 [AG 337]

degree of binding to albumin [3]: extensively bound to albumin
Molecule: Cc1noc(NS(=O)(=O)c2ccc(N)cc2)c1C [Sulfisoxazole]
distribution (extracellular space) [2]: found almost exclusively in the extracellular space

degree of binding to albumin ([3]; plasma): extensively bound to albumin
Molecule: CN(C)CCCN1c2ccccc2Sc2ccc(Cl)cc21 [chlorpromazine]

hepatic first-pass clearance [4]: extensive hepatic first-pass clearance
Molecule: COc1ccc([C@@H]2Sc3ccccc3N(CCN(C)C)C(=O)[C@@H]2OC(C)=O)cc1 [diltiazem]

hepatic first-pass clearance [4]: extensive hepatic first-pass clearance
Molecule: CC[C@H](C)C(=O)O[C@H]1C[C@@H](C)C=C2C=C[C@H](C)[C@H](CC[C@@H]3C[C@@H](O)CC(=O)O3)[C@H]21 [lovastatin]

degree of binding to albumin ([3]; plasma): extensive binding to albumin
Molecule: COc1ccc2cc([C@H](C)C(=O)O)ccc2c1 [naproxen]

half-life [1]: 60 h
Molecule: CO[C@H]1C[C@@H]2CC[C@@H](C)[C@@](O)(O2)C(=O)C(=O)N2CCCC[C@H]2C(=O)O[C@H]([C@H](C)C[C@@H]2CC[C@@H](O)[C@H](OC)C2)CC(=O)[C@H](C)/C=C(\C)[C@@H](O)[C@@H](OC)C(=O)[C@H](C)C[C@H](C)/C=C/C=C/C=C/1C [rapamycin]
